Reference: patent publication US10189782B2, “Derivatives of indole for the treatment of cancer, viral infections and lung diseases” (BIOKINESIS, priority 2012, dated 2019)
Counter-ions that a name gives are not always drawn. Like-named read-outs stand apart in the source and are kept apart here.

What was measured:
[1] = test system: human colon carcinoma HCT-116 xenografts; experiment: Anti-tumor activity in nude mice bearing subcutaneous human colon carcinoma HCT-116 xenografts; type: in vivo; details: i.p.
Description: The effects of one compound of the invention were studied on the tumor growth of human cancer cells in nude mice. […] The induction in nude mice was realized by subcutaneous injection in the right flank of each mouse of 10×10^6 HCT-116 cells in 200 μl serum-free medium. When the tumor volume reached 130 mm^3, mice were randomized in to 3 groups (10 mice/group).
Mice of group 2 were treated by intraperitoneal injection of cisplatin (diluted in NaCl 0.9%) at 4 mg/kg according to the treatment schedule 1Q3Dx3.
The body weight and tumor volume of mice were recorded twice a week until the end of the experiment.

K562 cells = experiment: Cytotoxicity on human cancer cells (WST-1), K562; type: cell-based; details: WST-1 on D4, read-out: K562 IC50
Description: Evaluation of Cytotoxicity Effects on Human Cancer Cells
The effects of the compounds of the invention on the viability of human cancer cells were studied on various human cancer cell lines of differing tissue origins (A549, NCI-H460: lung cancer; MDA-MB-231: breast cancer; HCT-116, HT-29: colon cancer; MIA-PaCa-2: pancreatic cancer; K562: leukaemia). All cell lines were obtained from ATCC or ECACC. Cells were cultured in the culture media described below, under a 37° C., 5% CO2 humidified atmosphere, according to a standard operating procedure.
On D0, the cells were plated in 90 μl in 96 wells plates at densities ranging from 500 to 5,000 cells per well.
Following addition of the test substance the cells were protected from light. The solvents (DMSO and specific control solvent were added at the maximal concentration: 10 μl/well (3 wells/condition)).
On D4, the Cell Proliferation Reagent WST-1 was added to each well (10 μl/well), according to a standard operating procedure. The cells were then incubated for 30 min to 4 h at 37° C.-5% CO2. After these incubations, the 96-well plates were shaken thoroughly for 1 min with Multiskan® EX apparatus (Thermo Labsystems, France). The absorbence was measured at 450 nm, the reference wavelength being 620 nm. The analysis of the results was performed with the Ascent software 2.6 (Thermo Labsystems, France), Microsoft Excel 2003 and GraphPad Prism 4.03 softwares to give the concentration of the compounds that induces the death of 50% of the cells (IC50).

[2] = target: T1, Human recombinant MKlp2 motor domain1-519, His tagged (Homo sapiens, UniProt O95235); experiment: Microtubule stimulated ATPase activity of the MKlp2 motor domain (Kinesin ELIPA Assay Kit); type: biochemical; details: read-out: MKIp2 IC50
T1 construct: Human recombinant MKlp2 motor domain1-519, His tagged; His; purchased Cytoskeleton MP05
T1 sequence (O95235 1-519): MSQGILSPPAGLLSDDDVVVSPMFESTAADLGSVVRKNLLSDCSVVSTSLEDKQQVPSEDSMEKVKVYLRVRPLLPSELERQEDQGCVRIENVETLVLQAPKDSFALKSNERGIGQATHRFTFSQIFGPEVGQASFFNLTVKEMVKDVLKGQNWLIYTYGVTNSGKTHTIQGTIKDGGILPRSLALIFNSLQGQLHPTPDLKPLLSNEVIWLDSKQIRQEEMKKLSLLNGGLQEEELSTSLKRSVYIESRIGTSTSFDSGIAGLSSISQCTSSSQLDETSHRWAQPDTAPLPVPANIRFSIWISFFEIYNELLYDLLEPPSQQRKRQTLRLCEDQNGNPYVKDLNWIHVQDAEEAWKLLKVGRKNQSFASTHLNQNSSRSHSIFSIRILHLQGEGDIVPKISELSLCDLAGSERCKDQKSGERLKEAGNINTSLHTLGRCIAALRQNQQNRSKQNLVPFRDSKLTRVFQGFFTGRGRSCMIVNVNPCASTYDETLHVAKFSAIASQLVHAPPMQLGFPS
Description: Evaluation of Inhibitory Effects on the Microtubule Stimulated ATPase Activity of the MKlp2 Motor Domain.
MKlp2 ATPase activity was measured by monitoring real time free phosphate generation using the Kinesin ELIPA Assay Kit. The assay is based upon an absorbance shift (330 nm-360 nm) that occurs when 2-amino-6-mercapto-7-methylpurine ribonucleoside (MESG) is catalytically converted to 2-amino-6-mercapto-7-methylpurine in the presence of inorganic phosphate (Pi). One molecule of Pi will yield one molecule of 2-amino-6-mercapto-7-methylpurine in an essentially irreversible reaction.
All experiments were performed at 22° C.
Condition 1, compound preparation.
The compounds were dissolved in DMSO at 30× the maximum concentration to be tested. […] DMSO solutions were pipetted directly into each well.
Condition 2, reaction's “motor mix”.
The following were mixed sequentially in the specified order at RT to obtain the “motor mix”.
20 mL: 15 mM Pipes-NaOH pH 7.0, 10 mM MgCl2, 30 μM Tx (Buffer 1).
10 mL: 5× MSEG (ELIPA 1 reagent, Cat. # BK051).
10 mL: 2.5 mg/mL porcine brain microtubules (3×10 mg Cat. # MT002-XL resuspended in 12 mL of Buffer 1).
0.5 mL: 100×PNP (ELIPA 2 reagent, cat. # BK051).
Condition 3, reaction initiation.
The motor mix was pipetted into each well to obtain 80% of total volume. The reaction was initiated by adding a 20% of total volume of 5 mM ATP into each well.
The reactions were measured in a SpectraMax M2 (Molecular Devices) set in kinetic mode and 360 nm absorbance wavelength. The start protocol was 5 second rapid circular mixing, 21 readings, 30 seconds apart.

[3] = HCT-116 xenograft nude mice, Cisplatin 4 mg/kg, Cpd 38 37.5 mg/kg, starting MBW 21 g
[4] = Table 6 (prodrugs, formula II), K562 cells

IC50 ([2]; Table 6 (prodrugs, formula II)) [nM] | SMILES | IC50 (K562 cells; [4]) [nM] | also measured
 | N.N.[Cl][Pt][Cl] [Cisplatin, cisplatin, reference compound] |  | Antitumor activity (tumor volume, FIG. 3) ([1]; HCT-116 xenograft bearing nude mice, cisplatin 4 mg/kg, compound 38 37.5 mg/kg): Antitumor activity was observed; MBWC D 0-D 4 (mean body weight change) [1, 3]: -1.1 g; MBWC D 0-D 7 (mean body weight change) [1, 3]: -2.54 g; MBWC D 0-D 10 (mean body weight change) [1, 3]: -3.33 g; MBWC D 0-D 14 (mean body weight change) [1, 3]: -2.22 g; MBWC D 0-D 17 (mean body weight change) [1, 3]: -1.26 g; MBWC D 0-D 21 (mean body weight change) [1, 3]: -0.38 g; MBWC D 0-D 24 (mean body weight change) [1, 3]: -0.02 g; MBWC D 0-D 28 (mean body weight change) [1, 3]: -0.1 g
 | COc1ccc2c(/C(C#N)=C/c3cc(C#N)ccc3OC)c[nH]c2c1 [Example 54, (Z)-3-(2-cyano-2-(6-methoxy-1H-indol-3-yl)vinyl)-4-methoxybenzonitrile] |  | IC50 (K562 cells; Table 4, K562 leukaemia cells): 20 nM; IC50 ([2]; Table 3, 22° C.): 1400 nM
13700 | COc1ccncc1/C=C(\C#N)c1cn(C(C)=O)c2ccc(Br)cc12 [Example 55, (Z)-2-(1-acetyl-5-bromo-1H-indol-3-yl)-3-(4-methoxypyridin-3-yl)acrylonitrile] | 550 | 
16700 | COc1ccc(C#N)cc1/C=C(\C#N)c1cn(C(C)=O)c2ccc(Br)cc12 [Example 56, (Z)-3-(2-(1-acetyl-5-bromo-1H-indol-3-yl)-2-cyanovinyl)-4-methoxybenzonitrile] | 250 | 
20000 | COc1ccncc1/C=C(\C#N)c1cn(C(=O)C(C)(C)C)c2ccc(Br)cc12 [Example 57, (Z)-2-(5-bromo-1-pivaloyl-1H-indol-3-yl)-3-(4-methoxypyridin-3-yl)acrylonitrile] | 200 | 
7500 | COc1ccc(C#N)cc1/C=C(\C#N)c1cn(C(=O)C(C)(C)C)c2ccc(Br)cc12 [Example 58, (Z)-3-(2-(5-bromo-1-pivaloyl-1H-indol-3-yl)-2-cyanovinyl)-4-methoxybenzonitrile] | 60 | 
19600 | COc1ccc(C#N)cc1/C=C(\C#N)c1cn(C(=O)OC(C)(C)C)c2ccc(Br)cc12 [Example 64, (Z)-tert-butyl 5-bromo-3-(1-cyano-2-(5-cyano-2-methoxyphenyl)vinyl)-1H-indole-1-carboxylate] | 240 | 
> 50000 | COc1ccc(C#N)cc1/C=C(\C#N)c1cn(C(=O)CN2CCN(C)CC2)c2ccc(Br)cc12 [Example 68, (Z)-3-(2-(5-bromo-1-(2-(4-methylpiperazin-1-yl)acetyl)-1H-indol-3-yl)-2-cyanovinyl)-4-methoxybenzonitrile] | 30 | 
> 50000 | COc1ccc(C#N)cc1/C=C(\C#N)c1cn(C(=O)C[C@H](C)N)c2ccc(Br)cc12 [Example 70, (S,Z)-3-(2-(1-(3-aminobutanoyl)-5-bromo-1H-indol-3-yl)-2-cyanovinyl)-4-methoxybenzonitrile hydrochloride] | 10 | 
1900 | COc1ccc(C#N)cc1/C=C(\C#N)c1cn(C(=O)CN)c2ccc(Br)cc12 [Example 71, (Z)-3-(2-(1-(2-aminoacetyl)-5-bromo-1H-indol-3-yl)-2-cyanovinyl)-4-methoxybenzonitrile hydrochloride] | 10 | 
> 50000 | COc1ccc(C#N)cc1/C=C(\C#N)c1cn(C(=O)CN2CCNCC2)c2ccc(Br)cc12 [Example 72, (Z)-3-(2-(5-bromo-1-(2-(piperazin-1-yl)acetyl)-1H-indol-3-yl)-2-cyanovinyl)-4-methoxybenzonitrile Hydrochloride] | 10 | 
> 50000 | COCCOCCOCC(=O)n1cc(/C(C#N)=C/c2cc(C#N)ccc2OC)c2cc(Br)ccc21 [Example 73, (Z)-3-(2-(5-bromo-1-(2-(2-(2-methoxyethoxy)ethoxy)acetyl)-1H-indol-3-yl)-2-cyanovinyl)-4-methoxybenzonitrile] | 30 | 
2100 | COc1ccc(C#N)cc1/C=C(\C#N)c1cn(C(=O)[C@@H](N)CO)c2ccc(Br)cc12 [Example 74, (S,Z)-3-(2-(1-(2-amino-3-hydroxypropanoyl)-5-bromo-1H-indol-3-yl)-2-cyanovinyl)-4-methoxybenzonitrile hydrochloride] | 10 | 
4600 | COc1ccc(C#N)cc1/C=C(\C#N)c1cn(C(=O)C2CCC(=O)N2)c2ccc(Br)cc12 (stereo not drawn) [Example 75, (Z)-3-(2-(5-bromo-1-(5-oxopyrrolidine-2-carbonyl)-1H-indol-3-yl)-2-cyanovinyl)-4-methoxybenzonitrile] | 20 | 
1300 | COc1ccc(C#N)cc1/C=C(\C#N)c1cn(C(=O)[C@H](N)CCCCN)c2ccc(Br)cc12 [Example 76, (R,Z)-3-(2-(5-bromo-1-(2,6-diaminohexanoyl)-1H-indol-3-yl)-2-cyanovinyl)-4-methoxybenzonitrile dihydrochloride] | 40 | 
> 50000 | COc1ccc(C#N)cc1/C=C(\C#N)c1cn(C(=O)CCOP(=O)(O)O)c2ccc(Br)cc12 [Example 79, (Z)-3-(5-bromo-3-(1-cyano-2-(5-cyano-2-methoxyphenyl)vinyl)-1H-indol-1-yl)-3-oxopropyl dihydrogen phosphate] | 400 | 
